According to patent publication US11565996B2, “Compounds for use as inhibitors of alternative oxidase or cytochrome bc1 complex” (AlternOx Scientific Limited, priority 2012, dated 2023):
“And” between values parts separate entries of the source, which are not always exact repeats. Equal entries are not always repeated. Where two headings read alike, the source gives them in different places.

Key:
cytochrome bc1 complex [1] = molecular target: cytochrome bc1 complex (Solanum tuberosum (Potato), UniProt P29757); experiment: Respiratory activity of potato mitochondria lacking AOX (cytochrome bc1 complex), oxygen electrode; format: biochemical; conditions: 0.3 mg potato mitochondria respiring on 1 mM NADH, 25° C., 1 μM CCCP
Description: (§1) Following on from this work, the inventors set out to test whether or not these compounds also have any effect on the respiratory activity of cytochrome bc1 complex.
(§2) Respiratory activity was measured in a medium containing 0.3M mannitol, 10 mM KCl, 5 mM MgCl2, 1 mM potassium phosphate and 10 mM MOPS (3-(N-morpholino)propanesulfonic acid) buffer pH7.4. Either 0.9 mg of rat liver mitochondria respiring on 5 mM succinate or 0.3 mg potato mitochondria respiring on 1 mM NADH were used. Respiration was measured using a Rank oxygen electrode of 0.4 ml volume at 25° C. in the presence of 1 μM CCCP (Carbonyl cyanide […]). The results were compared with ascochlorin (a known bc1 inhibitor) and azoxystrobin (a commercial fungicide targeted at the bc1 complex).
(§3) Tables 3 and 4 summarise the concentration of inhibitor that was required to reduce the respiration of cytochrome bc1 complex (in the absence of AOX) by 50%. […] The lower the IC50 value the better, since it means that a lower amount of the compound is needed to halve the respiratory activity.

cytochrome bc1 complex [2] = molecular target: cytochrome bc1 complex (Rattus norvegicus (Rat), UniProt P00159); experiment: Respiratory activity of rat liver mitochondria lacking AOX (cytochrome bc1 complex), oxygen electrode; format: biochemical; conditions: 0.9 mg rat liver mitochondria respiring on 5 mM succinate; 25° C.; 1 μM CCCP
Description: as §1, §2, §3

other quinol oxidases = experiment: Specificity versus other quinol oxidases; format: biochemical; conditions: specific for membrane-bound and purified AOX
[3] = tested on: Qo and Qi binding-sites of cytochrome bc1 complex; experiment: Titration using mitochondria in which the alternative oxidase is absent: bc1 binding sites inhibited; format: biochemical; conditions: mitochondria without AOX
From the text: as §1

recombinant AOX protein = recombinant AOX protein (Trypanosoma brucei brucei, UniProt Q26710); experiment: biochemical; conditions: purified recombinant AOX protein; oxygen consumption; 1 mM NADH as substrate
Description: Table 1 summarises the concentration of inhibitor required to reduce the respiration of purified recombinant AOX protein by 50%. Respiration was measured as the rate of oxygen consumption in the presence of 1 mM NADH as substrate and the numbers represent the final I50 concentration of the inhibitor.

[4] = read-out: IC50 (Potato mitochondria)

Row | Compound | IC50 (cytochrome bc1 complex [1]; IC50 (Potato mitochondria)) | IC50 (cytochrome bc1 complex [2]) | IC50 (cytochrome bc1 complex [1]; [4]) | also measured
1 | C/C(=C\Cc1c(O)c(Cl)c(C)c(C=O)c1O)CC/C=C(\C)[C@@H]1CC(=O)C(C)(C)O1 [Ascofuranone] | ~30000 nM and 30000 nM |  |  | 
2 | CC(/C=C/[C@@]1(C)[C@H](C)CCC(=O)[C@@H]1C)=C\Cc1c(O)c(Cl)c(C)c(C=O)c1O [Ascochlorin, ascochlorin] | 500 nM | 187 nM |  | 
3 | CC(C)=CCC/C(C)=C/Cc1c(O)c(Cl)c(C)c(C=O)c1O [Colletochlorin B] |  |  | 750 nM | inhibition of other quinol oxidases (other quinol oxidases): did not appear to inhibit other quinol oxidases; cytochrome bc1 complex binding sites inhibited [3]: both the Qo and Qi binding-sites
4 | CO/C=C(/C(=O)OC)c1ccccc1Oc1cc(Oc2ccccc2C#N)ncn1 [Azoxystrobin, azoxystrobin] |  | ~525 nM and 525 nM | ~1400 nM and 1400 nM | 
5 | CCCCCCCCOC(=O)c1cc(O)c(O)c(O)c1 [Octyl Gallate] |  |  |  | IC50 (recombinant AOX protein): 105 nM
